Assay results as given in publication PMC6915728 (Nature Communications, 2019).
Like-named read-outs stand apart in the source and are kept apart here.

Assays:
[1] = test system: E. coli BW25113 overexpression strains (ASKA plasmids); assay: Minimum inhibitory concentration (MIC), serial broth dilution, single-gene overexpression strains vs empty-vector control; format: cell-based, Escherichia coli; settings: for Relative MIC: broth dilution, MS medium, 100 µM IPTG, 30 °C, 20-24 h, OD600, 3 replicates
Experimental: (§1) Minimum inhibitory concentrations (MIC) were determined with a standard serial broth dilution technique with a minor modification. Specifically, instead of a two-fold dilution series, smaller AMP concentration steps were used (typically 1.2-fold) for two reasons. […] Second, gene overexpressions caused typically only small changes in the MICs of AMPs and therefore higher resolution was required. The protocol was as follows. From a stock solution of an AMP, 12-steps serial dilution was prepared in fresh MS medium in 96-well microtiter plates. Each AMP was represented in 11 different concentrations (3 wells per AMP concentration per strain). Three wells contained only medium to check the growth in the absence of AMP. After overnight growth in MS medium supplemented with chloramphenicol, bacterial strains were diluted 20-fold into fresh MS medium and grown until the cell density reached OD600 ~1. Cells were induced by 100 µM of IPTG and incubated for 1 h at 30 °C with continuous shaking at 300 rpm. Following incubation, approximately half-million cells were inoculated into the wells of the 96-well microtiter plate with a 96‐pin replicator. We used three independent replicates for each strain and the corresponding control. Two rows in the 96-well plate contained only MS medium in order to obtain the background OD value of the medium. Plates were incubated at 30 °C with continuous shaking at 300 rpm. After 20–24 h of incubation, OD600 values were measured in a microplate reader (Biotek Synergy 2).

[2] = test system: E. coli BW25113 ΔmlaD; assay: MIC, serial broth dilution, mlaD knockout strain vs wild type; format: cell-based, Escherichia coli; settings: mlaD deletion strain relative to control (E. coli BW25113); 3 replicates each; from optical density values of serial dilution plates, AMP in µg ml-1
Experimental: What could be the mechanism behind the antagonistic action of this pathway on membrane- versus intracellular-targeting AMPs? Since MlaD is part of a protein complex, it may lead to a loss-of-function effect upon overexpression[41],[42]. To test this, we asked whether overexpression and deletion of mlaD cause similar changes in susceptibility to a representative set of membrane- and intracellular-targeting AMPs.
as §1
A mlaD knockout strain of E. coli BW25113 carrying a kanamycin resistance cassette in the position of the gene was selected from the KEIO collection. The resistance marker was removed using plasmid-borne (pFT-A) expression of FLP recombinase leading to excision of the kanamycin resistance cassette. Cassette excision was verified by a polymerase chain reaction using the primers mlaD_del_ver_Fw (5′- […]) and mlaD_del_ver_Rev (5′- […]).
Supplementary Figure 13. […] The bacterial susceptibility of the mutant to AMPs was tested by MIC determination. Growth is shown relative to growth in the absence of the corresponding AMP. The blue line represents the mlaD knockout strain and the orange line represents the control strain (wild-type E. coli BW25113). Error bars indicate the standard errors based on three biological replicates. Source data are provided in the Source Data file.

[3] = test system: bacterial species in which the gene showed activity; settings: cited from earlier work
[4] = test system: AMP-evolved E. coli lines; settings: ref Spohn et al 2019, cited from earlier work
Description: Supplement 41467_2019_13618_MOESM13_ESM.xlsx, sheet "Figure 6 and S15" | column: A comprehensive dataset of antimicrobial susceptibility of AMP-adapted lines to antimicrobial peptides (AMPs).

[5] = test system: bacterial membrane; settings: literature mining; ref superscript numbers in the cell, listed in Supplementary Data 7 sheet References; cited from earlier work
Description: Supplement 41467_2019_13618_MOESM10_ESM.xlsx, sheet "AMP details" | column: Pore formation

[6] = overexpression strain narY, MIC of overexpression strain / MIC of empty-plasmid control

GIINTLQKYYRVRGGRAVLSLPKEEQIGKSTRGRKRRKK [HBD3, Human beta-defensin-3, human host-defense peptide; cluster C2]
Average relative change in MIC ([1]; mlaD overexpression strain relative to control (wild-type+empty vector), 3 replicates each, from optical density values of serial dilution plates, AMP in µg ml-1): 1.75 | Relative MIC ([1]; overexpression strain hyfA, MIC of overexpression strain / MIC of empty-plasmid control): 0.8 | Relative MIC ([1]; overexpression strain mlaD, MIC of the overexpression strain / MIC of the control strain (wild-type carrying the empty plasmid)): >1.55 | Relative MIC [1, 6]: 0.8 | Average relative change in MIC [2]: 1.56 | Gene that modulates bacterial susceptibility to the AMP ([3]; Staphylococcus epidermidis, ref http://onlinelibrary.wiley.com/doi/10.1046/j.1462-5822.2004.00367.x/epdf): icaA(ica operon)

Peptide glycine-leucine amide [PGLA]
Relative MIC ([1]; overexpression strain gadW, MIC of overexpression strain / MIC of empty-plasmid control): 0.63 | Relative MIC ([1]; overexpression strain lptB, MIC of overexpression strain / MIC of empty-plasmid control): 1.66 | Relative MIC ([1]; overexpression strain mlaC, MIC of overexpression strain / MIC of empty-plasmid control): 1.3 | Relative MIC ([1]; overexpression strain mzrA, MIC of overexpression strain / MIC of empty-plasmid control): 1.2 | Relative MIC [1, 6]: 0.8 | Relative MIC ([1]; overexpression strain nikB, MIC of overexpression strain / MIC of empty-plasmid control): 1.25 | Relative MIC ([1]; overexpression strain ptsN, MIC of overexpression strain / MIC of empty-plasmid control): 0.71 | Relative MIC ([1]; overexpression strain uhpC, MIC of overexpression strain / MIC of empty-plasmid control): 1.25 | Relative change in MIC (MIC of the AMP-adpated line / MIC of the ancestral strain) ([4]; AMP-adapted line BAC5_3): 1.4 | Relative change in MIC (MIC of the AMP-adpated line / MIC of the ancestral strain) ([4]; AMP-adapted line BAC5_5): 1.1 | Relative change in MIC (MIC of the AMP-adpated line / MIC of the ancestral strain) ([4]; AMP-adapted line BAC5_7): 0.9 | Relative change in MIC (MIC of the AMP-adpated line / MIC of the ancestral strain) ([4]; AMP-adapted line BAC5_10): 1.3 | Relative change in MIC (MIC of the AMP-adpated line / MIC of the ancestral strain) ([4]; AMP-adapted line CAP18_2): 2.5 | Relative change in MIC (MIC of the AMP-adpated line / MIC of the ancestral strain) ([4]; AMP-adapted line CAP18_5): 5.2 | Relative change in MIC (MIC of the AMP-adpated line / MIC of the ancestral strain) ([4]; AMP-adapted line CAP18_6): 1.6 | Relative change in MIC (MIC of the AMP-adpated line / MIC of the ancestral strain) ([4]; AMP-adapted line CAP18_8): 3 | Relative change in MIC (MIC of the AMP-adpated line / MIC of the ancestral strain) ([4]; AMP-adapted line CAP18_10): 4.3 | Relative change in MIC (MIC of the AMP-adpated line / MIC of the ancestral strain) ([4]; AMP-adapted line HBD3_3): 2.3 | Relative change in MIC (MIC of the AMP-adpated line / MIC of the ancestral strain) ([4]; AMP-adapted line HBD3_6): 3.6 | Relative change in MIC (MIC of the AMP-adpated line / MIC of the ancestral strain) ([4]; AMP-adapted line HBD3_8): 3.3 | Relative change in MIC (MIC of the AMP-adpated line / MIC of the ancestral strain) ([4]; AMP-adapted line HBD3_10): 1.9 | Relative change in MIC (MIC of the AMP-adpated line / MIC of the ancestral strain) ([4]; AMP-adapted line LL37_1): 1.4 | Relative change in MIC (MIC of the AMP-adpated line / MIC of the ancestral strain) ([4]; AMP-adapted line LL37_3): 1.9 | Relative change in MIC (MIC of the AMP-adpated line / MIC of the ancestral strain) ([4]; AMP-adapted line LL37_6): 1.8 | Relative change in MIC (MIC of the AMP-adpated line / MIC of the ancestral strain) ([4]; AMP-adapted line LL37_7): 5.2 | Relative change in MIC (MIC of the AMP-adpated line / MIC of the ancestral strain) ([4]; AMP-adapted line LL37_10): 1.8 | Relative change in MIC (MIC of the AMP-adpated line / MIC of the ancestral strain) ([4]; AMP-adapted line PEX_1): 3.5 | Relative change in MIC (MIC of the AMP-adpated line / MIC of the ancestral strain) ([4]; AMP-adapted line PEX_4): 3.5 | Relative change in MIC (MIC of the AMP-adpated line / MIC of the ancestral strain) ([4]; AMP-adapted line PEX_5): 1.9 | Relative change in MIC (MIC of the AMP-adpated line / MIC of the ancestral strain) ([4]; AMP-adapted line PEX_6): 2.1 | Relative change in MIC (MIC of the AMP-adpated line / MIC of the ancestral strain) ([4]; AMP-adapted line PEX_7): 2.9 | Relative change in MIC (MIC of the AMP-adpated line / MIC of the ancestral strain) ([4]; AMP-adapted line PR39_1): 1.6 | Relative change in MIC (MIC of the AMP-adpated line / MIC of the ancestral strain) ([4]; AMP-adapted line PR39_2): 1.5 | Relative change in MIC (MIC of the AMP-adpated line / MIC of the ancestral strain) ([4]; AMP-adapted line PR39_5): 0.8 | Relative change in MIC (MIC of the AMP-adpated line / MIC of the ancestral strain) ([4]; AMP-adapted line PR39_7): 1.5 | Relative change in MIC (MIC of the AMP-adpated line / MIC of the ancestral strain) ([4]; AMP-adapted line PR39_10): 0.4 | Relative change in MIC (MIC of the AMP-adpated line / MIC of the ancestral strain) ([4]; AMP-adapted line PROA_2): 1.6 | Relative change in MIC (MIC of the AMP-adpated line / MIC of the ancestral strain) ([4]; AMP-adapted line PROA_3): 1.1 | Relative change in MIC (MIC of the AMP-adpated line / MIC of the ancestral strain) ([4]; AMP-adapted line PROA_7): 0.6 | Relative change in MIC (MIC of the AMP-adpated line / MIC of the ancestral strain) ([4]; AMP-adapted line PROA_8): 1.2 | Relative change in MIC (MIC of the AMP-adpated line / MIC of the ancestral strain) ([4]; AMP-adapted line PROA_9): 0.9 | Relative change in MIC (MIC of the AMP-adpated line / MIC of the ancestral strain) ([4]; AMP-adapted line PXB_2): 1.8 | Relative change in MIC (MIC of the AMP-adpated line / MIC of the ancestral strain) ([4]; AMP-adapted line PXB_5): 1.5 | Relative change in MIC (MIC of the AMP-adpated line / MIC of the ancestral strain) ([4]; AMP-adapted line PXB_6): 8 | Relative change in MIC (MIC of the AMP-adpated line / MIC of the ancestral strain) ([4]; AMP-adapted line PXB_8): 4.5 | Relative change in MIC (MIC of the AMP-adpated line / MIC of the ancestral strain) ([4]; AMP-adapted line PXB_10): 5.5 | Gene that modulates bacterial susceptibility to the AMP ([3]; Salmonella typhimurium, Salmonella typhi, ref http://www.sciencedirect.com/science/article/pii/S009286740081750X): pagP | Pore formation (whether AMP makes pores in the bacterial membrane) [5]: Yes10,11
